The source of these data is PubChem BioAssay AID330 (DTP/NCI, 2004).

“And” between values parts separate entries of the source, which are not always exact repeats. Equal values may be shown once. Toxic doses and inconclusive results are not listed.

This assay has as its system P388 leukemia ip, CD2F1 mice, survival T/C. Kind of assay: NCI In Vivo Anticancer Drug Screen. Data for tumor model P388 Leukemia (intraperitoneal) in CD2F1 (CDF1) mice. The note with it: endpoint: median survival time, higher = longer survival. Here is the method: The antitumor activity of compounds was measured in mice bearing transplantable tumors. Survival or tumor size were measured and the results are expressed as the measurement made in the treated group (T) divided by the measurement made in the vehicle treated control group (C). The tumor model used in this assay is P388 Leukemia (intraperitoneal) in CD2F1 (CDF1) mice

Take `N[C@H](C(=O)O)[C@@H]1CC(Cl)=NO1`: the T/C is 105 % of control and 108 % of control (dose: 0.03 mg/kg/injection, schedule: Q01DX009 (ip), vehicle: saline); 113 % of control (dose: 0.06 mg/kg/injection, schedule: Q01DX009 (ip), vehicle: saline); 120 % of control (dose: 0.13 mg/kg/injection, schedule: Q01DX009 (ip), vehicle: saline); 150 % of control (dose: 0.25 mg/kg/injection, schedule: Q01DX009 (ip), vehicle: saline); 155 % of control (dose: 0.5 mg/kg/injection, schedule: Q01DX009 (ip), vehicle: saline); 174 % of control (dose: 0.63 mg/kg/injection, schedule: Q01DX009 (ip), vehicle: saline). Moreover, the T/C is 155 % of control (dose: 0.75 mg/kg/injection, schedule: Q01DX009 (ip), vehicle: saline); 150 % of control and 171 % of control (dose: 1.0 mg/kg/injection, schedule: Q01DX009 (ip), vehicle: saline); 121 % of control (dose: 1.0 mg/kg/injection, schedule: Q01DX009 (ip), vehicle: water); 213 % of control (dose: 1.25 mg/kg/injection, schedule: Q01DX009 (ip), vehicle: saline); 165 % of control and 179 % of control and 192 % of control (dose: 1.94 mg/kg/injection, schedule: Q01DX009 (ip), vehicle: saline); 119 % of control (dose: 2.0 mg/kg/injection, schedule: Q01DX005 (ip), vehicle: saline). Besides, the T/C was 111 % of control (dose: 2.0 mg/kg/injection, schedule: Q01DX005 (ip), vehicle: water); 119 % of control (dose: 2.0 mg/kg/injection, schedule: Q01DX005 (iv), vehicle: saline); 152 % of control and 164 % of control and 198 % of control (dose: 2.0 mg/kg/injection, schedule: Q01DX009 (ip), vehicle: saline); 153 % of control (dose: 2.0 mg/kg/injection, schedule: Q01DX009 (ip), vehicle: water); 190 % of control (dose: 2.3 mg/kg/injection, schedule: Q01DX009 (ip), vehicle: saline); 235 % of control (dose: 2.5 mg/kg/injection, schedule: Q01DX009 (ip), vehicle: saline). The T/C is 119 % of control (dose: 3.0 mg/kg/injection, schedule: Q01DX005 (iv), vehicle: saline); 175 % of control and 180 % of control and 238 % of control (dose: 3.0 mg/kg/injection, schedule: Q01DX009 (ip), vehicle: saline); 155 % of control (dose: 3.12 mg/kg/injection, schedule: Q01DX005 (ip), vehicle: water); 177 % of control and 189 % of control and 203 % of control (dose: 3.24 mg/kg/injection, schedule: Q01DX009 (ip), vehicle: saline); 194 % of control (dose: 3.5 mg/kg/injection, schedule: Q01DX009 (ip), vehicle: saline); 161 % of control (dose: 4.0 mg/kg/injection, schedule: Q01DX005 (ip), vehicle: saline). Further, the T/C is 119 % of control (dose: 4.0 mg/kg/injection, schedule: Q01DX005 (iv), vehicle: saline); 161 % of control and 190 % of control (dose: 4.0 mg/kg/injection, schedule: Q01DX009 (ip), vehicle: saline); 112 % of control (dose: 4.0 mg/kg/injection, schedule: Q01DX009 (ip), vehicle: water); 154 % of control (dose: 4.32 mg/kg/injection, schedule: Q01DX005 (ip), vehicle: saline); 158 % of control (dose: 5.0 mg/kg/injection, schedule: Q01DX005 (ip), vehicle: saline); 235 % of control (dose: 5.0 mg/kg/injection, schedule: Q01DX009 (ip), vehicle: saline). Besides, the T/C (dose: 5.3 mg/kg/injection, schedule: Q01DX009 (ip), vehicle: saline) is 203 % of control; the T/C (dose: 5.4 mg/kg/injection, schedule: Q01DX009 (ip), vehicle: saline) was 163 % of control and 188 % of control and 204 % of control; the T/C (dose: 6.0 mg/kg/injection, schedule: Q01DX009 (ip), vehicle: saline) is 173 % of control and 186 % of control and 319 % of control; the T/C (dose: 6.25 mg/kg/injection, schedule: Q01DX005 (ip), vehicle: water) was 150 % of control and 168 % of control; the T/C (dose: 7.2 mg/kg/injection, schedule: Q01DX005 (ip), vehicle: saline) is 156 % of control; the T/C (dose: 8.0 mg/kg/injection, schedule: Q01DX005 (ip), vehicle: saline) was 171 % of control and 182 % of control. Further, the T/C is 119 % of control (dose: 8.0 mg/kg/injection, schedule: Q01DX005 (iv), vehicle: saline); 186 % of control and 210 % of control (dose: 8.0 mg/kg/injection, schedule: Q01DX009 (ip), vehicle: saline); 184 % of control (dose: 8.0 mg/kg/injection, schedule: Q01DX009 (ip), vehicle: water); 99 % of control (dose: 9.0 mg/kg/injection, schedule: Q01DX009 (ip), vehicle: saline); 164 % of control (dose: 10.0 mg/kg/injection, schedule: Q01DX005 (ip), vehicle: saline); 220 % of control (dose: 12.0 mg/kg/injection, schedule: Q01DX005 (ip), vehicle: saline). Besides, the T/C is, setting by setting: (dose: 12.0 mg/kg/injection, schedule: Q01DX005 (iv), vehicle: saline) 171 % of control; (dose: 12.5 mg/kg/injection, schedule: Q01DX005 (ip), vehicle: water) 155 % of control and 182 % of control; (dose: 15.0 mg/kg/injection, schedule: Q01DX009 (ip), vehicle: saline) 98 % of control and 100 % of control; (dose: 16.0 mg/kg/injection, schedule: Q01DX005 (ip), vehicle: saline) 164 % of control and 181 % of control; (dose: 16.0 mg/kg/injection, schedule: Q01DX005 (ip), vehicle: water) 152 % of control and 163 % of control; (dose: 16.0 mg/kg/injection, schedule: Q01DX009 (ip), vehicle: saline) 102 % of control and 218 % of control. Besides, the T/C (dose: 16.0 mg/kg/injection, schedule: Q01DX009 (ip), vehicle: water) is 198 % of control; the T/C (dose: 20.0 mg/kg/injection, schedule: Q01DX005 (ip), vehicle: saline) is 169 % of control and 176 % of control; the T/C (dose: 20.0 mg/kg/injection, schedule: Q04DX003 (ip), vehicle: saline) was 158 % of control; the T/C (dose: 24.0 mg/kg/injection, schedule: Q01DX005 (ip), vehicle: saline) was 222 % of control; the T/C (dose: 24.0 mg/kg/injection, schedule: Q01DX005 (iv), vehicle: saline) was 108 % of control; the T/C (dose: 25.0 mg/kg/injection, schedule: Q01DX005 (ip), vehicle: water) is 155 % of control and 187 % of control. Moreover, the T/C reads like this: (dose: 32.0 mg/kg/injection, schedule: Q01DX005 (ip), vehicle: saline) 225 % of control; (dose: 32.0 mg/kg/injection, schedule: Q01DX005 (ip), vehicle: water) 170 % of control; (dose: 40.0 mg/kg/injection, schedule: Q04DX003 (ip), vehicle: saline) 180 % of control and 196 % of control; (dose: 50.0 mg/kg/injection, schedule: Q04DX003 (ip), vehicle: other) 163 % of control; (dose: 80.0 mg/kg/injection, schedule: Q04DX003 (ip), vehicle: saline) 150 % of control and 190 % of control and 297 % of control; (dose: 100.0 mg/kg/injection, schedule: Q04DX003 (ip), vehicle: other) 161 % of control. In addition, under “dose: 160.0 mg/kg/injection, schedule: Q04DX003 (ip), vehicle: saline”, the T/C is 118 % of control and 164 % of control and 250 % of control.
Regarding `BrC1C2CCC3OC3CCC12` (configuration not stated), the T/C reads like this: (dose: 100.0 mg/kg/injection, schedule: Q04DX003 (ip), vehicle: saline with Tween-80) 101 % of control; (dose: 200.0 mg/kg/injection, schedule: Q04DX003 (ip), vehicle: saline with Tween-80) 92 % of control; (dose: 400.0 mg/kg/injection, schedule: Q04DX003 (ip), vehicle: saline with Tween-80) 97 % of control.
`Cc1ccc(S(=O)(=O)/N=S(\C)CC(C)Cl)cc1` (configuration not stated): the T/C reads like this: (dose: 50.0 mg/kg/injection, schedule: Q01DX009 (ip), vehicle: Klucel (hydroxypropylcellulose) (HPC)) 100 % of control; (dose: 100.0 mg/kg/injection, schedule: Q01DX009 (ip), vehicle: Klucel (hydroxypropylcellulose) (HPC)) 105 % of control; (dose: 200.0 mg/kg/injection, schedule: Q01DX009 (ip), vehicle: Klucel (hydroxypropylcellulose) (HPC)) 105 % of control.
As for `CCCN=c1c2c(OC)c(OC)ccc2cc2n1CCc1cc3c(cc1-2)OCO3`, the T/C is, setting by setting: (dose: 0.63 mg/kg/injection, schedule: Q01DX009 (ip), vehicle: water) 110 % of control; (dose: 1.25 mg/kg/injection, schedule: Q01DX009 (ip), vehicle: water) 99 % of control; (dose: 2.5 mg/kg/injection, schedule: Q01DX009 (ip), vehicle: water) 110 % of control; (dose: 5.0 mg/kg/injection, schedule: Q01DX009 (ip), vehicle: water) 110 % of control; (dose: 10.0 mg/kg/injection, schedule: Q01DX009 (ip), vehicle: water) 115 % of control.
